Assay results reported in paper PMC6152678, “In Vitro Comparative Study of the Inhibitory Effects of Mangiferin and Its Aglycone Norathyriol towards UDP-Glucuronosyl Transferase (UGT) Isoforms” (Molecules : A Journal of Synthetic Chemistry and Natural …, 2017).
“And” between values parts separate entries of the source, which are not always exact repeats. Equal entries are not always repeated. Where two headings read alike, the source gives them in different places.

How the values were obtained:
[1] = design: method as in PMID 26434292; conditions: human, oral 0.9 g mangiferin, cited from earlier work
[2] = rat, cited from earlier work
[3] = target: T1, UGT1A10 (Homo sapiens, UniProt Q9HAW8); assay: Inhibition of recombinant UGT-catalyzed 4-MU glucuronidation; format: biochemical; conditions: pH 7.4, probe 4-methylumbelliferone (4-MU), 30 μM, 100 μM compound, 4-MU probe substrate, negative = activation
T1 construct: purchased BD Gentest Corp. (Woburn, MA, USA); host or cells: baculovirus-infected insect cells
T1 sequence (Q9HAW8 26-530): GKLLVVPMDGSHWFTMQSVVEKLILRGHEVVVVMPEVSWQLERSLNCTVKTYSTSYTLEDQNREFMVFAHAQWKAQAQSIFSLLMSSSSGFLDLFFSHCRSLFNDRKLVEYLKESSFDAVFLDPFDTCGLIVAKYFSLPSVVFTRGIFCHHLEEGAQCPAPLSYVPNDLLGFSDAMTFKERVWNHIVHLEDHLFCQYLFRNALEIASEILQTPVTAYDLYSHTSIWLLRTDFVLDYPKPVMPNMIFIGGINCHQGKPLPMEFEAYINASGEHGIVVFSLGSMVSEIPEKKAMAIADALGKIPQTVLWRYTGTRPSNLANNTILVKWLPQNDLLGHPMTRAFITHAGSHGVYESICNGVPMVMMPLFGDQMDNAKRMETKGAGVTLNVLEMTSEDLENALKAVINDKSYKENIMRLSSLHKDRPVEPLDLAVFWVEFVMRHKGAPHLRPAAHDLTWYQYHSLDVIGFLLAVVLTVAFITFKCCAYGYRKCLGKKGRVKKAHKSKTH

Row | inhibition at 120 min, 100 µM [3] | SMILES | concentration in plasma reached ([1]; about 1 h) | time at which the plasma concentration was reached [1] | maximum concentration in the plasma ([2]; oral MGF 70mg/kg) | maximum concentration in the plasma ([2]; oral MGF 120 mg/kg)
1 | -86.4% | O=c1c2cc(O)c(O)cc2oc2cc(O)c([C@@H]3O[C@H](CO)[C@@H](O)[C@H](O)[C@H]3O)c(O)c12 [MGF, 1,3,6,7-tetrahydroxyxanthone-C-2-β-D-glucoside] | 38.64 ± 6.75 ng/mL and 0.091 ± 0.016 μM | about 1 h | 0.19 μg/mL and 0.45 μM | 8.13 ± 1.96 μg/mL and 19.2 ± 4.64 μM
2 | -272% | O=c1c2cc(O)c(O)cc2oc2cc(O)cc(O)c12 [NTR, 1,3,6,7-tetrahydroxyxanthone] | – | – | – | –
